Assay results taken from ChEMBL document CHEMBL1155048, “Effect of novel N-cyano-tetrahydro-pyridazine compounds, a class of cathepsin K inhibitors, on the bone resorptive activity of mature osteoclasts” (Bioorg Med Chem Lett, 2008).

Columns and labels:
RAW264.7 = experiment: Inhibition of RANKL-induced bone resorption of multinucleated osteoclasts from mouse RAW264.7 cells by pit formation assay; format: functional, cell-based
Macrophage = experiment: Inhibition of RANKL-induced bone resorption of multinucleated osteoclasts from BALB/c mouse bone marrow-derived macrophages by pit formation assay; format: functional, cell-based
Cathepsin K = molecular target: T1, Cathepsin K (Homo sapiens, UniProt P43235); experiment: Inhibition of human recombinant cathepsin K
T1 sequence (P43235 whole entry): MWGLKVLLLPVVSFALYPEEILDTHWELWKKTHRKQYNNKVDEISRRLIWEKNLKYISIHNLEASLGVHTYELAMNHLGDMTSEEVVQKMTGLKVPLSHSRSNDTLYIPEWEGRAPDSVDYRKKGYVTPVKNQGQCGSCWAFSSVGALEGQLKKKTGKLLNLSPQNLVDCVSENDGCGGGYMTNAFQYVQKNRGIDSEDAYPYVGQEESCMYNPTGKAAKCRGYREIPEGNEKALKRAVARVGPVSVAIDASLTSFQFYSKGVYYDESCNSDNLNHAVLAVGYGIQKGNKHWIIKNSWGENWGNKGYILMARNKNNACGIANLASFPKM

Procathepsin L = Procathepsin L (Homo sapiens, UniProt P07711); experiment: Inhibition of human recombinant cathepsin L
Cathepsin B = Cathepsin B (Homo sapiens, UniProt P07858); experiment: Inhibition of human recombinant cathepsin B

Procathepsin L, sequence (P07711 whole entry): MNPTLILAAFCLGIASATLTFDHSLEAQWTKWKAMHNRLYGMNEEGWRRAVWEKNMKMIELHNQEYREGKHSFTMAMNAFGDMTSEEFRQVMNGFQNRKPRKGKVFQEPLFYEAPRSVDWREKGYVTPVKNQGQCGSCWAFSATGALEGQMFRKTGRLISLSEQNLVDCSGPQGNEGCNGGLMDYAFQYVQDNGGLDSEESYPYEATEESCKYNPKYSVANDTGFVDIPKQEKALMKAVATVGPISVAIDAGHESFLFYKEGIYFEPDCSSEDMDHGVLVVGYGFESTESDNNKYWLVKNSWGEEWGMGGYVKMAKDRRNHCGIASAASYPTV

IC50 (Cathepsin K) [µM] | IC50 (Procathepsin L) [µM] | IC50 (Cathepsin B) [µM] | Compound | Activity (RAW264.7) | Activity (Macrophage)
0.001 | 0.145 | 0.011 | CC(C)C(NC(=O)OCc1ccccc1)C(=O)N1CCCCN1C#N (stereo unspecified) | Dose-dependent effect | Dose-dependent effect
0.004 | 0.73 | 0.04 | CC(C)C(Nc1cccc(C#N)c1)C(=O)N1CCCCN1C#N (stereo unspecified) | – | –
0.011 | 0.24 | 0.032 | CC(C)C(Nc1cccc(Cl)c1)C(=O)N1CCCCN1C#N (stereo unspecified) | – | –
0.024 | 0.61 | 0.11 | CC(C)C(Nc1ccc(Cl)cc1)C(=O)N1CCCCN1C#N (stereo unspecified) | – | –
0.025 | 0.625 | 0.053 | CC(C)C(Nc1ccccc1)C(=O)N1CCCCN1C#N (stereo unspecified) | – | –
0.023 | 0.048 | 0.023 | CC(C)C(Nc1cccc(C(F)(F)F)c1)C(=O)N1CCCCN1C#N (stereo unspecified) | – | –
0.055 | 0.13 | 0.038 | CC(C)C(NC(=O)OC(C)(C)C)C(=O)N1CCCCN1C#N (stereo unspecified) | – | –
0.006 | 0.355 | 0.032 | Cc1cccc(NC(C(=O)N2CCCCN2C#N)C(C)C)c1 (stereo unspecified) | – | –
